Laboratory results reported in patent US7041307B2, “Biocide-polyester concentrates and biocidal compositions prepared therefrom” (Ciba Specialty Chemicals Corporation, priority 1999, dated 2006).

Experiment: Yellowness index (ASTM D1925) of polypropylene plaques after multiple pass extrusion, biocide as neat powder or polyester concentrate (Example 2)
Format: physicochemical
Details: polypropylene plaque
Excerpt: Polypropylene homopolymer (PRO-FAX® 6501, Montell Polyolefins, 100 parts), stabilized with 0.05 parts of neopentanetetrayl tetrakis(3,5-di-tert-butyl-4-hydroxyhydrocinnamate), 0.10 parts of tris(2,4-di-tert-butylohenyl) phosphite and 0.05 parts of calcium stearate is dry blended without a biocide; or with 0.25 parts or with 0.50 parts of 2,4,4′-trichloro-2′-hydroxydiphenyl ether (IRGASAN® or IRGAGUARD®, Ciba Specialty Chemicals Corp.) either as a neat powder or as a concentrate as prepared in Example 1. The parts of components are by weight.
The extruded pellets are compression molded into 125 mil plaques (2″×2″, 5.08 cm×5.08 cm) at 450° F. (232° C.) for nine minutes (three minutes at low pressure; three minutes at high pressure; three minutes cooling). Yellowness index (YI) values are determined on the plaques according to ASTM D1925 on a DCI SF600 spectrophotometer. An increase in yellowness corresponds to a positive increase in the YI value.

For `Oc1cc(Cl)ccc1Oc1ccc(Cl)cc1Cl` [Powder, 2,4,4′-trichloro-2′-hydroxydiphenyl ether], the “Yellowness Index (YI) after multiple pass extrusion at 500° F. (260° C.) First” value (biocide 0.25% by wt) was 8.4, the “Yellowness Index (YI) after multiple pass extrusion at 550° F. (288° C.) First” value (biocide 0.25% by wt) was 6.4 and the “Yellowness Index (YI) after multiple pass extrusion at 500° F. (260° C.) Second” value (biocide 0.25% by wt) was 8.8. The “Yellowness Index (YI) after multiple pass extrusion at 550° F. (288° C.) Second” value (biocide 0.25% by wt) was 6.3, the “Yellowness Index (YI) after multiple pass extrusion at 500° F. (260° C.) Third” value (biocide 0.25% by wt) was 9.7 and the “Yellowness Index (YI) after multiple pass extrusion at 550° F. (288° C.) Third” value (biocide 0.25% by wt) was 6.6. The “Yellowness Index (YI) after multiple pass extrusion at 500° F. (260° C.) First” value (biocide 0.50% by wt) was 8.8, the “Yellowness Index (YI) after multiple pass extrusion at 550° F. (288° C.) First” value (biocide 0.50% by wt) was 7.1 and the “Yellowness Index (YI) after multiple pass extrusion at 500° F. (260° C.) Second” value (biocide 0.50% by wt) was 9.7. The “Yellowness Index (YI) after multiple pass extrusion at 550° F. (288° C.) Second” value (biocide 0.50% by wt) was 7.2, the “Yellowness Index (YI) after multiple pass extrusion at 500° F. (260° C.) Third” value (biocide 0.50% by wt) was 9.2 and the “Yellowness Index (YI) after multiple pass extrusion at 550° F. (288° C.) Third” value (biocide 0.50% by wt) was 7.4.
